Results from US7238659B2, “Reducing axon degeneration with proteasome inhibitors” (Children's Medical Center Corporation, priority 2003, dated 2007).
Square brackets hold non-standard residues; d marks the D form. Peptide text beside a SMILES is read from it. * marks the point of attachment. Sta = CC(C)C[C@H](N)[C@@H](O)CC(=O)O; Isovaleryl = CC(C)CC(=O)*; Nle = CCCC[C@H](N)C(=O)O; Nva = CCC[C@H](N)C(=O)O; Cbz = O=C(OCc1ccccc1)*; CH2F = FC*

Key:
[1] = test system: axons of cultured neurons; test: Axon degeneration elicited by calcium ionophore A23187 or ionomycin; format: cell-based
[2] = test system: transected axons from cultured sympathetic neurons; test: Wallerian degeneration of transected axons in cultured sympathetic ganglia; format: cell-based, rat; set-up: development of the axonal beading appearance / disintegration of transected axons into debris: dose or concentration left out as unconfirmed; details: for protective effect on Wallerian degeneration: added to sympathetic cultures prior to axotomy, EGTA 2 mM; for time post-axotomy until degeneration is shown: untreated transected axons: early signs 8 hr post-axotomy
Excerpt: Inhibiting the ubiquitin-proteasome pathway delays Wallerian degeneration. Wallerian degeneration in most transected mammalian nerve fibers is a complex sequence that entails degradation of the axon, changes in the ensheathing and glial cells, alterations in the blood-tissue barriers, and responses of macrophage-lineage cells (reviewed by Griffin et al., 1995). To study the underlying mechanisms involved in the axon degeneration process, we have used the degeneration of transected axons from cultured primary neurons as models (Buckmaster et al., 1995; George et al., 1995; Wang et al., 2001). In cultured sympathetic ganglia derived from postnatal day 3 (p3) rats, soma-deprived axons undergo a typical degenerative process (herein, George et al., 1995; Wang et al., 2001). The severed axons first appear normal for 6-10 hr, depending upon the duration of culturing prior to axotomy. For sympathetic ganglia that have been cultured for 5 days, the severed axons begin to develop such signs of early degeneration as focal swelling and beading approximately 8 hrs after the axons had been separated from their cell bodies. In most cases, the axons would be completely degenerated and detached after 12-16 hr post-axotomy. Similar degenerative processes were also observed in other types of cultured neurons, such as chicken dorsal root ganglion neurons and retinal ganglion cells.
We examined whether UPS is involved in axotomy-triggered Wallerian degeneration by using specific pharmacological inhibitors. It is known that for UPS to degrade a specific substrate protein, the sequential action of three enzymes, including a ubiquitin activating enzyme (E1), a ubiquitin conjugating enzyme (E2), and a ubiquitin ligase (E3), is required to covalently link ubiquitin to the substrate. Poly-ubiquitinated proteins are then targeted for degradation by the 26S proteasome, which is composed of two 19S proteasome regulatory particles and a 20S core. Substrate ubiquitination may also be reversed by ubiquitin proteases (reviewed by Weissman, 2001). In spite of the existence of multiple E2 and E3 molecules, the final and common step in degrading polyubiquitinated protein substrates is through the 26S proteasome machinery. Consistent with previous evidence for the existence and functioning of the UPS in axons (Campbell and Holt, 2001, 2003), components of UPS machinery, such as subunit C2 of the proteasome 20S, were found in both intact and transected axons from sympathetic neurons. Thus, to perturb UPS activity we used two mechanistically different proteasome inhibitors, MG132, a peptide-based reversible proteasome inhibitor (Rock et al., 1994), and lactacystin, a […] irreversible proteasome inhibitor (Fenteany et al., 1995), both of which had been extensively used to inhibit UPS activity in many different cell types including cultured neurons (Campbell and Holt, 2001, 2003).
24 hr post-axotomy when most of the axon debris has detached from the culture surface in control cultures, proteasome inhibitor-treated explants still retained many axons with some degeneration signs, which remained up to 36 hr post-axotomy.
8 hr post-axotomy, approximately 90% of axons from control HSV-infected explants, and only about 40% of axons from HSV-UBP2-infected ones, developed a beading appearance. However, the protective effects of UBP2 overexpression were less robust than those of the proteasome inhibitors, presumably due to the low expression levels of UBP2.
As previous studies have implicated calpains, a class of calcium-dependent proteases, in Wallerian degeneration (George et al., 1995; Finn et al., 2000), we also examined the contribution of calpain activity in our assays with specific calpain inhibitors such as ALLN (Finn et al., 2000). […] 16 hr after axotomy when most of the transected axons from control cultures degenerated into debris, there were still remaining axon fibers in ALLN-treated cultures.

[3] = test system: microtubules and neurofilaments of transected axons; test: Breakdown of axonal cytoskeleton (microtubules, neurofilaments) in transected axons, immunostaining and Western blotting; format: cell-based, rat
Excerpt: Microtubule destabilization at the initiation stage of Wallerian degeneration in vitro. We next examined which cellular events might correlate with the involvement of UPS and calpains in Wallerian degeneration. We monitored the integrity of different subcellular organelles in the transected axons by both immunocytochemistry and membrane labeling. […] At the protein level, we observed a corresponding cleavage of the neurofilament subunits, neurofilament 160 (NF-160) and neurofilament 68 (NF68) as detected by Western blotting.
Apart from these axonal markers, however, the earliest detectable change appears to occur in the microtubules of transected axons. […] After 12 hr post-axotomy, the stained signals of fragmented microtubule structures weakened gradually and were replaced by many spheroid bodies in severed axons. By 16 hr after axotomy, almost all of the detected signals were spheroid bodies along the tracts of original axons. Even 16 hrs after axotomy when the majority of the axonal NF160 and NF68 has been degraded, most of the tubulin proteins still remained intact and the protein level remained stable according to Western blotting. To provide additional biochemical evidence for such an axotomy-elicited microtubule destabilization in transected axons at early stages of Wallerian degeneration, we separated monomeric (soluble, S) and polymerized (pellet, P) tubulins from transected axons and measured the depolymerization ratio (S/[S+P]) at different time points.
UPS and calpains mediate the breakdown of axonal cytoskeleton components. To explore the link between these cellular and molecular changes during Wallerian degeneration, we next examined whether proteasome inhibitors, calpain inhibitors, and EGTA affect neurofilaments and microtubules in transected axons. […] On the other hand, ALLN only delayed neurofilament degradation, but not the fragmentation of microtubules.

[4] = test system: corticospinal tract (CST) after midthoracic spinal cord transection with human Schwann cell grafts; test: Corticospinal Tract (CST) Regeneration Assay; format: in vivo, adult nude rat; set-up: key: dramatically reduce (+++ or ++++) axonal degeneration; dramatically reduce (+++ or ++++) axonal degeneration; details: inhibitor in fibrin glue; thirty-five days after grafting
Experimental: Corticospinal Tract (CST) Regeneration Assay. Proteasome inhibitors are assayed for their ability to improve corticospinal tract (CST) regeneration following thoracic spinal cord injury by promoting CST regeneration into human Schwann cell grafts in the methods of Guest et al. (1997, supra). […] Inhibitors are incorporated into a fibrin glue and placed in the same region. Anterograde tracing from the motor cortex using the dextran amine tracers, Fluororuby (FR) and biotinylated dextran amine (BDA), are performed. Thirty-five days after grafting, the CST response is evaluated qualitatively by looking for reduced degeneration of CST fibers in or beyond grafts and quantitatively by constructing camera lucida composites to determine the sprouting index (SI), the position of the maximum termination density (MTD) rostral to the GFAP-defined host/graft interface, and the longitudinal spread (LS) of bulbous end terminals. The latter two measures provide information about axonal die-back.

[5] = test system: transected optic nerve; test: Wallerian degeneration of transected optic nerve in vivo (gelfoam at lesion site); set-up: species or system mice; details: gelfoam pre-soaked with 50 mM MG132; 3 days post-axotomy; immunostaining
Excerpt: MG132 slows down Wallerian degeneration of transected optic nerve in vivo. To assess whether these observations from in vitro culture experiments hold true in vivo, we first performed immunostaining experiments to examine the alterations of microtubules and neurofilaments in transected optic nerves. […] In optic nerves 3 days after axotomy when an antibody against NF160 still detected many linear neurofilament fibers, the antibody against a neuron specific b-tubulin detected largely spheroid bodies, reminiscent of the microtubule changes observed in vitro 16 hr post-axotomy. […] To examine whether proteasome inhibitors would retard Wallerian degeneration in vivo, we applied gelfoams pre-soaked with vehicle (PBS) or MG132 to the lesion sites and examined the transected optic nerves 3 days post-axotomy by immunostaining. Our experimental procedures were adapted from Meyer et al. (1994). In brief, adult mice were anesthetized by an intraperitoneal injection of ketamine (100 mg/kg) and xylazine (20 mg/kg). An incision was then made in the conjunctiva above the left orbit. The optic nerve was exposed under an operating microscope, and its dura opened longitudinally. […] At determined days after nerve crush, the animals were given a lethal dose of anesthesia and perfused through the heart with cold saline plus heparin followed by 4% paraformaldehyde. […]

[6] = test system: NGF-deprived sympathetic neurons; test: Neurite degeneration in NGF-deprived sympathetic neurons; format: cell-based; details: 36 hr after NGF deprivation; for death of cell bodies after NGF deprivation: Hoechst 33258 nuclei staining
Excerpt: Proteasome inhibitors also delay neurite degeneration in NGF-deprived sympathetic neurons. In addition to transected axons, axons from neurons that have been deprived of their physiological trophic factors may also undergo a Wallerian-like degeneration process (reviewed by Raff et al., 2002). If the distal part of an axon of a cultured sympathetic neuron is locally deprived of NGF, that part of the axon degenerates while the rest of the cell and axon survives (Campenot, 1982). Moreover, it has been shown that such an NGF deprivation-triggered axon degeneration is delayed in the sympathetic neurons from Wld^s mice (Deckwerth and Johnson, 1994). We thus decided to investigate whether UPS is also involved in NGF deprivation-triggered axon degeneration. Consistent with previous studies (for example, Deckwerth and Johnson, 1994), 36 hr after NGF deprivation, all of the cultured sympathetic neurons underwent a typical apoptosis program with death of cell bodies as detected by nuclei staining with Hoechst 33258 (a few normally stained nuclei are glial cells) and degeneration of axons as indicated by both morphological criteria and immunostaining.

[7] = test system: axons of cultured neurons; test: Induction of axon degeneration by cytoskeleton-disrupting agent; format: cell-based
Excerpt: Thus, among the three major polymer components of the axon cytoskeleton, microtubules play a particularly important role in maintaining the integrity of axons. Consistent is the observation of microtubule disruption as the earliest detectable change during the physiological process of axon pruning in Drosophila metamorphosis (Watts et al., 2003).

`O=C(O)CN(CCOCCOCCN(CC(=O)O)CC(=O)O)CC(=O)O` [EGTA] was tested, and the “axon degeneration elicited by calcium ionophore A23187 or ionomycin” value [1] was “blocked”, the “protective effect on Wallerian degeneration” value (shortened to “protective effect”) [2] was “much stronger protective effect” and the “degeneration of all examined subcellular markers (destabilization of microtubules and cleavage of neurofilaments)” value ([3]; transected axons) was “profoundly retarded”.

For `CC(=O)N[C@@H](CSC(=O)[C@]1([C@@H](O)C(C)C)NC(=O)[C@H](C)[C@@H]1O)C(=O)O` [Lactacystin], the “time post-axotomy until degeneration is shown” value [2] was 16 h, the “degeneration of all examined subcellular markers (destabilization of microtubules and cleavage of neurofilaments)” value ([3]; transected axons) was “profoundly retarded” and the “Reduce Degeneration” value [4] was “+++”.

For `CCCC[C@@H](C=O)NC(=O)[C@H](CC(C)C)NC(=O)[C@H](CC(C)C)NC(C)=O` [MG-101, Ac-Leu-Leu-Nle-CHO] (Ac-Leu-Leu-[Nle]-aldehyde), the “development of the axonal beading appearance” value [2] was “did not affect”, the “disintegration of transected axons into debris” value ([2]; 16 hr after axotomy) was “slightly delayed” and the “calpain-dependent degradation of neurofilaments NF160 and NF68” value ([3]; Western blotting) was “completely prevented”. For the same compound, the neurofilament degradation ([3]; transected axons) was “only delayed” and the “Reduce Degeneration” value [4] was “+++”.

In the case of `CCC[C@@H](C=O)NC(=O)[C@H](CC(C)C)NC(=O)[C@H](CC(C)C)NC(=O)OCc1ccccc1` [MG-115, Carbobenzoxy-L-leucyl-L-leucyl-L-norvalinal] (Cbz-Leu-Leu-[Nva]-aldehyde), the “Reduce Degeneration” value [4] is reported as “++++”.

For `CC(C)C[C@@H](C=O)NC(=O)[C@H](CC(C)C)NC(=O)[C@H](CC(C)C)NC(=O)OCc1ccccc1` [MG-132, Carbobenzoxy-L-leucyl-L-leucyl-L-leucinal] (Cbz-Leu-Leu-Leu-aldehyde), the “breakdown of microtubules, neurofilaments and axolemma in transected optic nerves” value [5] was “significantly slowed”, the “axon (neurite) degeneration after NGF deprivation” value [6] was “the majority of the axons were still intact” and the “death of cell bodies after NGF deprivation” value [6] was “still showed clear apoptotic staining”. The “time post-axotomy until degeneration is shown” value [2] was 16 h, the “degeneration of all examined subcellular markers (destabilization of microtubules and cleavage of neurofilaments)” value ([3]; transected axons) was “profoundly retarded” and the “Reduce Degeneration” value [4] was “+++”.

`CC(C)C[C@H](NC(=O)[C@H](CC(C)C)NC(=O)[C@H](CC(C)C)NC(=O)OCc1ccccc1)B(O)O` [MG-262, Z-Leu-Leu-Leu-B(OH)2] was tested, and the “Reduce Degeneration” value [4] was “+++”.

With `CC(C)C[C@H](NC(=O)[C@H](Cc1ccccc1)NC(=O)c1cnccn1)B(O)O` [PS-341, bortezomib] the “Reduce Degeneration” value [4] was “++++”.

In the case of `CC(C)[C@H](O)[C@@]12NC(=O)[C@H](C)[C@@H]1OC2=O` [PS-519, clasto-Lactacystin β-Lactone], the “Reduce Degeneration” value [4] is reported as “++++”.

For `COC(=O)C[C@H](NC(=O)[C@H](C)NC(=O)[C@@H](NC(=O)OCc1ccccc1)C(C)C)C(=O)CF` [Z-VAD-fmk] (Cbz-Val-Ala-Asp(OMe)-CH2F), the “axon (neurite) degeneration after NGF deprivation” value [6] was “efficiently prevented”, the “death of cell bodies after NGF deprivation” value [6] was “efficiently prevented” and the “protective effect” value [2] was “did not result in any detectable protective effect”.

`C/C1=C/C(=O)O[C@@H]2C[C@@H](CC[C@H](C)/C=C\CC1)O[C@@](O)([C@@H]1CSC(=O)N1)C2` [latrunculin B] was tested, and the “induction of axon degeneration” value [7] was “failed to induce axon degeneration”.

In the case of `CC(C)CC(=O)N[C@H](C(=O)N[C@H](C(=O)N[C@@H](CC(C)C)[C@@H](O)CC(=O)N[C@@H](C)C(=O)N[C@@H](CC(C)C)[C@@H](O)CC(=O)O)C(C)C)C(C)C` [pepstatin.A] (Isovaleryl-VV[Sta]A[Sta]-OH), the “protective effect” value [2] is reported as “did not result in any detectable protective effect”.

With `CC(C)C(O)C12NC(=O)C(C)(C)C1OC2=O` (stereo not drawn) [α-Methylomuralide, α-Methyl clasto-Lactacystin β-Lactone] the “Reduce Degeneration” value [4] was “++++”.
